Source: patent US20250122219A1 (priority 2023, published 2025)
Read-outs that look alike come from different tables or passages of the source.

What was measured:
[1] = Cytotoxicity assay in MT-4 cells; format: cell-based; conditions: human; uninfected MT-4 cells, 5 days incubation, Cell Titer Glo; read-out: MT4 CC50
In short: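 Viability read by Cell Titer Glo luminescence after 5 days at 37 °C. MT-4 cells, not infected, in complete RPMI (10% FBS), received compound dilution series. Base cytotoxicity set with […] puromycin.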

[2] = system: HIV-1 (IIIB); assay: Antiviral assay in MT-4 cells; format: cell-based
Method: Compounds were tested in a high-throughput 384-well assay format for their ability to inhibit the replication of HIV-1 (IIIB) in MT-4 cells. Compounds were serially diluted (1.3) in DMSO on 384-well polypropylene plates and further diluted 200-fold into complete RPMI media (10% FBS, 1% P/S) using the Biotek Micro Flow and Labcyte ECHO acoustic dispenser. Each plate contained up to 8 test compounds, with negative (No Drug Control) and 5 μM AZT positive controls. MT-4 cells were pre-infected with 10 μL of either RPMI (mock-infected) or a fresh 1:250 dilution of HIV-1 IIIB concentrated virus stock. Infected and uninfected MT-4 cells were further diluted in complete RPMI media and added to each plate using a Micro Flow dispenser. After 5 days incubation in a humidified and temperature controlled incubator (37° C.), Cell Titer Glo (Promega) was added to the assay plates and chemiluminescence read using an Envision plate-reader.

[3] = Human immunodeficiency virus 1, MT4, 120 h, HIV-1 IIIB in MT-4 cells, 5 days incubation, Cell Titer Glo, read-out: MT4 EC50

CCC(=O)OCOc1c2n(cc(C(=O)NCc3ccc(F)cc3F)c1=O)[C@@H]1CN(C2=O)[C@@H](C)CC[C@]12CC(OC)=NO2 [Example 85, (((3′S,5S,7′R)-10′-((2,4-difluorobenzyl)carbamoyl)-3-methoxy-3′-methyl-1′,11′-dioxo-1′,4′,5′,11′-tetrahydro-3′H,4H,7′H-spiro[isoxazole-5,6′-[2,7]methanopyrido[1,2-a][1,4]diazonin]-12′-yl)oxy)methyl propionate]
CC50 at 5 days [1]: 28400 nM | EC50 [2, 3]: 2.25 nM

CC1=NO[C@@]2(CC[C@H](C)N3C[C@H]2n2cc(C(=O)NCc4ccc(F)cc4F)c(=O)c(OC(=O)C4CCCC4)c2C3=O)C1 [Example 53, (3′S,5S,7′R)-10′-((2,4-difluorobenzyl)carbamoyl)-3,3′-dimethyl-1′,11′-dioxo-1′,4′,5′,11′-tetrahydro-3′H,4H,7′H-spiro[isoxazole-5,6′-[2,7]methanopyrido[1,2-a][1,4]diazonin]-12′-yl cyclopentanecarboxylate]
CC50 at 5 days [1]: 24400 nM | EC50 [2, 3]: 1.44 nM

CC1=NO[C@@]2(CC[C@H](C)N3C[C@H]2n2cc(C(=O)NCc4ccc(F)cc4F)c(=O)c(OC(=O)CCC4CCCC4)c2C3=O)C1 [Example 59, (3′S,5S,7′R)-10′-((2,4-difluorobenzyl)carbamoyl)-3,3′-dimethyl-1′,11′-dioxo-1′,4′,5′,11′-tetrahydro-3′H,4H,7′H-spiro[isoxazole-5,6′-[2,7]methanopyrido[1,2-a][1,4]diazonin]-12′-yl 3-cyclopentylpropanoate]
CC50 at 5 days [1]: 15400 nM | EC50 [2, 3]: 0.459 nM

CC1=NO[C@@]2(CC[C@H](C)N3C[C@H]2n2cc(C(=O)NCc4ccc(F)cc4F)c(=O)c(OC(=O)/C=C/C(=O)O)c2C3=O)C1 [Example 75, (E)-4-(((3′S,5S,7′R)-10′-((2,4-difluorobenzyl)carbamoyl)-3,3′-dimethyl-1′,11′-dioxo-1′,4′,5′,11′-tetrahydro-3′H,4H,7′H-spiro[isoxazole-5,6′-[2,7]methanopyrido[1,2-a][1,4]diazonin]-12′-yl)oxy)-4-oxobut-2-enoic acid]
CC50 at 5 days [1]: 16100 nM | EC50 ([2]; Human immunodeficiency virus 1, IIIB, MT4, 120 h, read-out: MT4 EC50 (nM)): 1.6 nM

CCCCCCCCCCOC(=O)OCOc1c2n(cc(C(=O)NCc3ccc(F)cc3F)c1=O)[C@@H]1CN(C2=O)[C@@H](C)CC[C@]12CC(C)=NO2 [Example 188, decyl ((((3′S,5S,7′R)-10′-((2,4-difluorobenzyl)carbamoyl)-3,3′-dimethyl-1′,11′-dioxo-1′,4′,5′,11′-tetrahydro-3′H,4H,7′H-spiro[isoxazole-5,6′-[2,7]methanopyrido[1,2-a][1,4]diazonin]-12′-yl)oxy)methyl) carbonate]
CC50 at 5 days [1]: 38500 nM | EC50 [2, 3]: 1.55 nM

CCCCC/C=C\C/C=C\CCCCCCCC(=O)Oc1c2n(cc(C(=O)NCc3ccc(F)cc3F)c1=O)[C@@H]1CN(C2=O)[C@@H](C)CC[C@]12CC(OC)=NO2 [Example 7, (3′S,5S,7′R)-10′-((2,4-difluorobenzyl)carbamoyl)-3-methoxy-3′-methyl-1′,11′-dioxo-1′,4′,5′,11′-tetrahydro-3′H,4H,7′H-spiro[isoxazole-5,6′-[2,7]methanopyrido[1,2-a][1,4]diazonin]-12′-yl (9Z,12Z)-octadeca-9,12-dienoate]
CC50 at 5 days [1]: ≥ 50000 nM | EC50 [2, 3]: 7.46 nM

CCCCCCCOC(=O)OCOc1c2n(cc(C(=O)NCc3ccc(F)cc3F)c1=O)[C@@H]1CN(C2=O)[C@@H](C)CC[C@]12CC(OC)=NO2 [Example 184, (((3′S,5S,7′R)-10′-((2,4-difluorobenzyl)carbamoyl)-3-methoxy-3′-methyl-1′,11′-dioxo-1′,4′,5′,11′-tetrahydro-3′H,4H,7′H-spiro[isoxazole-5,6′-[2,7]methanopyrido[1,2-a][1,4]diazonin]-12′-yl)oxy)methyl heptyl carbonate]
CC50 at 5 days [1]: 9980 nM | EC50 [2, 3]: 0.441 nM

COCCCCCC(=O)Oc1c2n(cc(C(=O)NCc3ccc(F)cc3F)c1=O)[C@@H]1CN(C2=O)[C@@H](C)CC[C@]12CC(C)=NO2 [Example 71, (3′S,5S,7′R)-10′-((2,4-difluorobenzyl)carbamoyl)-3,3′-dimethyl-1′,11′-dioxo-1′,4′,5′,11′-tetrahydro-3′H,4H,7′H-spiro[isoxazole-5,6′-[2,7]methanopyrido[1,2-a][1,4]diazonin]-12′-yl 6-methoxyhexanoate]
CC50 at 5 days [1]: 19500 nM | EC50 [2, 3]: 1.79 nM

COC1=NO[C@@]2(CC[C@H](C)N3C[C@H]2n2cc(C(=O)NCc4ccc(F)cc4F)c(=O)c(OCOC(=O)CCCCCC(C)C)c2C3=O)C1 [Example 116, (((3′S,5S,7′R)-10′-((2,4-difluorobenzyl)carbamoyl)-3-methoxy-3′-methyl-1′,11′-dioxo-1′,4′,5′,11′-tetrahydro-3′H,4H,7′H-spiro[isoxazole-5,6′-[2,7]methanopyrido[1,2-a][1,4]diazonin]-12′-yl)oxy)methyl 7-methyloctanoate]
CC50 at 5 days [1]: 27200 nM | EC50 [2, 3]: 4.17 nM

CCC(=O)Oc1c2n(cc(C(=O)NCc3ccc(F)cc3F)c1=O)[C@@H]1CN(C2=O)[C@@H](C)CC[C@]12CC(C)=NO2 [Example 33, (3′S,5S,7′R)-10′-((2,4-difluorobenzyl)carbamoyl)-3,3′-dimethyl-1′,11′-dioxo-1′,4′,5′,11′-tetrahydro-3′H,4H,7′H-spiro[isoxazole-5,6′-[2,7]methanopyrido[1,2-a][1,4]diazonin]-12′-yl propionate]
CC50 at 5 days [1]: 22600 nM | EC50 [2, 3]: 1.42 nM

CCCCCCCCCOC(=O)OCOc1c2n(cc(C(=O)NCc3ccc(F)cc3F)c1=O)[C@@H]1CN(C2=O)[C@@H](C)CC[C@]12CC(C)=NO2 [Example 186, (((3′S,5S,7′R)-10′-((2,4-difluorobenzyl)carbamoyl)-3,3′-dimethyl-1′,11′-dioxo-1′,4′,5′,11′-tetrahydro-3′H,4H,7′H-spiro[isoxazole-5,6′-[2,7]methanopyrido[1,2-a][1,4]diazonin]-12′-yl)oxy)methyl nonyl carbonate]
CC50 at 5 days [1]: ≥ 50000 nM | EC50 [2, 3]: 2.24 nM

CCCCCCOC(=O)Oc1c2n(cc(C(=O)NCc3ccc(F)cc3F)c1=O)[C@@H]1CN(C2=O)[C@@H](C)CC[C@]12CC(OC)=NO2 [Example 132, (3′S,5S,7′R)-10′-((2,4-difluorobenzyl)carbamoyl)-3-methoxy-3′-methyl-1′,11′-dioxo-1′,4′,5′,11′-tetrahydro-3′H,4H,7′H-spiro[isoxazole-5,6′-[2,7]methanopyrido[1,2-a][1,4]diazonin]-12′-yl hexyl carbonate]
CC50 at 5 days [1]: 17800 nM | EC50 [2, 3]: 0.153 nM

CC1=NO[C@@]2(CC[C@H](C)N3C[C@H]2n2cc(C(=O)NCc4ccc(F)cc4F)c(=O)c(OCOC(=O)OCCCCCC(C)C)c2C3=O)C1 [Example 207, (((3′S,5S,7′R)-10′-((2,4-difluorobenzyl)carbamoyl)-3,3′-dimethyl-1′,11′-dioxo-1′,4′,5′,11′-tetrahydro-3′H,4H,7′H-spiro[isoxazole-5,6′-[2,7]methanopyrido[1,2-a][1,4]diazonin]-12′-yl)oxy)methyl (6-methylheptyl) carbonate]
CC50 at 5 days [1]: 11300 nM | EC50 [2, 3]: 0.564 nM

CC1=NO[C@@]2(CC[C@H](C)N3C[C@H]2n2cc(C(=O)NCc4ccc(F)cc4F)c(=O)c(OCOC(=O)CCCCC(C)C)c2C3=O)C1 [Example 115, (((3′S,5S,7′R)-10′-((2,4-difluorobenzyl)carbamoyl)-3,3′-dimethyl-1′,11′-dioxo-1′,4′,5′,11′-tetrahydro-3′H,4H,7′H-spiro[isoxazole-5,6′-[2,7]methanopyrido[1,2-a][1,4]diazonin]-12′-yl)oxy)methyl 6-methylheptanoate]
CC50 at 5 days [1]: 16200 nM | EC50 [2, 3]: 3.62 nM

CC1=NO[C@@]2(CC[C@H](C)N3C[C@H]2n2cc(C(=O)NCc4ccc(F)cc4F)c(=O)c(OCOC(=O)CCCC(C)C)c2C3=O)C1 [Example 118]
CC50 at 5 days [1]: 18200 nM | EC50 [2, 3]: 2.19 nM

CC1=NO[C@@]2(CC[C@H](C)N3C[C@H]2n2cc(C(=O)NCc4ccc(F)cc4F)c(=O)c(OC(=O)CC(C)C)c2C3=O)C1 [Example 55, (3′S,5S,7′R)-10′-((2,4-difluorobenzyl)carbamoyl)-3,3′-dimethyl-1′,11′-dioxo-1′,4′,5′,11′-tetrahydro-3′H,4H,7′H-spiro[isoxazole-5,6′-[2,7]methanopyrido[1,2-a][1,4]diazonin]-12′-yl 3-methylbutanoate]
CC50 at 5 days [1]: 16400 nM | EC50 [2, 3]: 0.313 nM

COC1=NO[C@@]2(CC[C@H](C)N3C[C@H]2n2cc(C(=O)NCc4ccc(F)cc4F)c(=O)c(OC(=O)CCCC(C)C)c2C3=O)C1 [Example 60, (3′S,5S,7′R)-10′-((2,4-difluorobenzyl)carbamoyl)-3-methoxy-3′-methyl-1′,11′-dioxo-1′,4′,5′,11′-tetrahydro-3′H,4H,7′H-spiro[isoxazole-5,6′-[2,7]methanopyrido[1,2-a][1,4]diazonin]-12′-yl 5-methylhexanoate]
CC50 at 5 days [1]: 21000 nM | EC50 [2, 3]: 0.539 nM

CCCCCC(=O)OCOc1c2n(cc(C(=O)NCc3ccc(F)cc3F)c1=O)[C@@H]1CN(C2=O)[C@@H](C)CC[C@]12CC(C)=NO2 [Example 92, (((3′S,5S,7′R)-10′-((2,4-difluorobenzyl)carbamoyl)-3,3′-dimethyl-1′,11′-dioxo-1′,4′,5′,11′-tetrahydro-3′H,4H,7′H-spiro[isoxazole-5,6′-[2,7]methanopyrido[1,2-a][1,4]diazonin]-12′-yl)oxy)methyl hexanoate]
CC50 at 5 days [1]: 21500 nM | EC50 [2, 3]: 2.14 nM
